Drawing on patent US7589063B2, “Molecules which promote hematopoiesis” (Aplagen GmbH, priority 2004, dated 2009), this text covers EC50 values for 1 sequence.

The subject of this test is TF-1 cells. Kind of test: Proliferation assay with TF-1 cells by MTT. The test is classed as cell-based. The conditions noted are these: MTT-assay data, dose-response fitted with GraphPad. The protocol:
TF-1 Cells in logarithmic growth phase (˜2×10^5−1×10^6 cells/ml; RPMI medium; 20% fetal calf serum; supplemented with Penicillin, streptomycin, L-Glutamine; 0.5 ng/ml Interleukin 3) are washed (centrifuge 5 min. 1500 rpm and resuspend in RPMI complete without IL3 at 500,000 cells/ml) and pre-cultured before start of the assay for 24 h without IL-3. At the next day the cells are seeded in 24- or 96-well plates usually using at least 6 concentrations and 4 wells per concentration containing at least 10,000 cells/well per agent to be tested. Each experiment includes controls comprising recombinant EPO as a positive control agent and wells without addition of cytokine as negative control agent. Peptides and EPO-controls are prediluted in medium to the desired concentrations and added to the cells, starting a culture period of 3 days under standard culture conditions (37° C., 5% carbon dioxide in the gas phase, atmosphere saturated with water). […]
At day 4, prior to start of the analysis, a dilution series of a known number of TF-1 cells is prepared in a number of wells (0/2500/5000/10000/20000/50000 cells/well in 100 μl medium). These wells are treated in the same way as the test wells and later provide a calibration curve from which cell numbers can be determined. […] 25 μl of 10% sodium dodecylsulfate in water are added to each well prior to measurement E492 in an ELISA Reader.

For GGTYSCHFGGLTWVCKPQGG [SEQ. ID NO. 12], the EC50 values entry is “no activity detectable”.
